Data published in patent US5801182A, “Amine substituted compounds” (Cell Therapeutics, Inc., priority 1995, dated 1998).
pIC50: −log10 of the molar value.

Tests used:
human stromal cells = experiment: PDGF-induced proliferation in human stromal cells; type: cell-based; conditions: for concentration at which comparative compounds' activity is apparent: 50 ng/ml PDGF-BB, human stromal cells, FIG. 23
Experimental: 3506 on PDGF-induced proliferation in human stromal cells. Procedurally, human stromal cells were starved in serum-free media for 24 hours and then stimulated with 50 ng/ml PDGF. Compound no. 3506 was added at various concentrations one hour prior to PDGF stimulation and pulsed for 24 hours. Cells were harvested and cell proliferation measured having background counts (i.e., starved cells) at about 10% of control levels.
Human stromal cells were starved in serum-free media for 24 hours and then stimulated with 50 ng/ml PDGF-BB. The drugs were added at various concentrations one hour prior to PDGF stimulation. Tritiated thymidine was added at the time of PDGF stimulation and pulsed for 24 hours. Cells were harvested and cell proliferation measured (FIG. 23). Background counts (i.e., starved cells) were about 10% of control levels.

thymocytes = experiment: Thymocyte proliferation and activation, co-stimulated with Con A and IL-2; type: cell-based, Balb/C mice; conditions: Mus musculus, 2 h, compound added two hours prior, FIGS. 6-11
Experimental: 3506, 3556, 3563, 3576, 3581, 3582 and 3584 on thymocyte proliferation and activation, co-stimulated with Concanavalin A (Con A) and interleukin-2 (IL-2), at various concentrations of the compounds (IC50). Con A and IL-2 together stimulate T cell proliferation and differentiation.
Thymuses, obtained from normal, female Balb/C mice, were dissociated and plated into 96-well plates at a density of 2×10^5 cells/well. Con A ([…]) and IL-2 (15 U/ml) were added to the wells. The cells were incubated for 4 days at 37° C. On day 4, the cells were pulsed with tritiated thymidine and incubated for an additional 4 hours. Incorporated tritiated thymidine of harvested cells was determined in a liquid scintillation counter. Results plotted as dose concentration versus proliferation for inventive compounds nos. 3506, 3556, 3563, 3576, 3581, 3582 and 3584 are shown in FIGS. 6 (3506), 7 (3556), 8 (3563), 9 (3576), 10 (3581 and 3582) and 11 (3584). Respective concentrations of inventive compound (shown in the figures) were added two hours prior to Con A and IL-2 activation. Background counts were less than 200 cpm.

[1] = test system: Mouse bone marrow cells (CFU-GM); experiment: CFU-GM colony assay, effect on normal bone marrow cells; type: cell-based; conditions: for effect on normal cells compared to known chemotherapeutic compounds in vitro: vs vinblastine, 5-fluorouracil, doxorubicin or cisplatinum; for toxicity for normal mouse marrow cells: 8 hours incubation, CFU-GM after 7 days, FIGS. 12-16
Source text: This example illustrates a method for examining an effect of the inventive compounds, showing potential as cancer therapies on normal cells. This assay has been used clinically to evaluate recovery of patients' marrow following chemotherapy or radiation. In this specific example, inventive compounds nos.
Mouse bone marrow cells are useful in this assay because they produce colonies, which can later be counted, in culture. The colonies are called colony forming unit-granulocyte macrophage (CFU-GM) and depend on a source of colony stimulating factor for growth.
Cells were cultured with inventive compounds nos. 3563, 3576, 3581, 3584 and 4500, to comparatively evaluate an effect on normal cells of inventive compounds identified as potential cancer therapies. Procedurally, cells were incubated for 8 hours with various concentrations of these compounds. A negative control without any compound was simultaneously prepared. After 8 hours, the incubated cells were washed thoroughly and a consistent number were subsequently plated to obtain CFU-GM. Colonies were permitted to grow for 7 days at 37° C., in 5% CO2. After 7 days of growth, colony growths were counted microscopically. Data obtained in this assay for inventive compounds nos. 3563, 3576, 3581, 3584 and 4500 are plotted in FIGS. 12, 13, 14, 15 and 16, respectively. The data in the figures are shown to compare the colonies counted for cells incubated with varying concentrations of the compounds tested against the negative control, without compound. At concentrations ranging from 5 to 30 μM, more colonies existed for cells incubated with the inventive potential cancer compound than with known, chemotherapeutic agents. Compound no.

[2] = test system: HIV long terminal repeat (LTR) promotor; experiment: Inhibition of reporter gene (alkaline phosphatase) expression directed by HIV-LTR promotor in 293-EBNA cells; type: cell-based; conditions: Human immunodeficiency virus 1; reporter gene directed by HIV-LTR promotor in 293-EBNA cells; FIGS. 17, 19, 21
Source text: This example is an assay used to measure anti-viral activity of inventive compounds nos. […] This assay is predictive of anti-viral activity for retroviruses. Specifically,a plasmid construct, pHIV.AP, using the human immunodeficiency virus (HIV) long terminal repeat (LTR) promotor [derived from pU3R-III CAT (Sodroski et al. Science, Vol. 227, page 171, 1985) to direct the expression of secreted human placental alkaline phosphatase reporter gene and an expression vector for a 72 amino acids tat protein from HIV (Frankel et al., Cell, Vol. 55, pages 1189-1193, 1988) were transfected into a tumor cell line (e.g., 293-EBNA cells). The stably transfected cells were treated with various concentrations of the inventive compounds. The expression of the alkaline phosphatase (AP) reporter gene in the individual cultures was then measured by following the change in absorbance at A405 of cell conditioned media in the presence of a suitable substrate (e.g., ortho-nitrophenol phosphate). Berger et al., Gene, Vol. 66, pages 1-10, 1988.

[3] = Viability of 293-EBNA cells (alamarBlue colorimetric assay); type: cell-based; conditions: human, 293-ebna cells; alamarBlue; FIGS. 18, 20, 21; read-out: LD50, 293-EBNA cells
Experimental: (§1) The effect of respective inventive compounds on the viability of 293-EBNA cells was measured by a colorimetric assay that uses the alamarBlue® dye (purchased from Alamar Biosciences, Inc.) to report cell proliferation, viability and cytotoxicity. This dye is an oxidation-reduction (Redox) indicator that changes color in response to chemical reduction of growth medium resulting from cell growth. The general procedure involves adding alamarBlue® in an amount equal to 10% of the culture volume, returning the culture to incubator for four hours, and measuring the absorbance at 570 nm after subtraction of background absorbance at 600 nm.

Balb/3T3 cells [4] = experiment: PDGF-induced proliferation of Balb/3T3 cells (tritiated thymidine); type: cell-based; conditions: Mus musculus, BALB/3T3, 24 h; PDGF-stimulated; FIGS. 2 and 4; read-out: concentrations inhibiting proliferation of Balb/3T3 cells stimulated by PDGF
Experimental: Disregulated PDGF-proliferative response has been linked to a variety of diseases, including, e.g., restenosis, atherosclerosis, fibrosis, and tumor cell angiogenesis. Balb/3T3 cells respond vigorously to PDGF stimulation, and are useful in vitro models for further study of PDGF-induced proliferation.
Balb/3T3 cells were plated in low serum-containing medium for 24 hours prior to stimulation with various concentrations of inventive compounds nos. 3556 and 4500. PDGF was added at varying concentrations along with tritiated thymidine. The cells were allowed to incubate for one day, following addition of PDGF and thymidine. Twenty-four hours later, the cells were harvested and counted by liquid scintillation counting. FIGS. 2 and 4 report data for inventive compounds nos. 3556 and 4500, respectively, obtained in this proliferation assay. The results shown in each respective figure illustrate that inventive compounds nos.

Balb/3T3 cells [5] = experiment: Viability (cytotoxicity) assay of Balb/3T3 cells with BCECF; type: cell-based; conditions: at the concentrations at which the compounds inhibit proliferation; vs control value of 100%; FIGS. 3 and 5
Experimental: In conjunction with the Balb/3T3 proliferation assay, a related viability assay was conducted to assess the cytotoxicity of compounds which inhibit proliferation in this system. The assay protocol was identical to that performed above except that tritiated thymidine was not added after the 24 hour incubation with PDGF. In this cytotoxicity assay, after incubating the cells, a 10 μM solution of BCECF was added and the cells were incubated for 30 minutes at 37° C. Following this incubation, BCECF was replaced with PBS and the plate read for fluorescence in a Millipore cytofluorometer. Data obtained was plotted as a percent of control versus concentration of inventive compound tested. FIGS. 3 and 5 represent the results of this viability assay, for compounds nos. 3556 and 4500, respectively.

293-EBNA cells = experiment: Viability of 293-EBNA cells (alamarBlue colorimetric assay); type: cell-based
Experimental: as §1

JR-CSF strain of HIV-1 = experiment: HIV-1 JR-CSF infection of human peripheral blood lymphocytes (p24 antigen ELISA); type: cell-based; conditions: JR-CSF HIV-1, FIG. 22
Experimental: 3556, to prevent promotion of fresh isolates of JR-CSF strain of HIV-1 infection of human peripheral blood lymphocytes (PBL).
In a protocol for infecting a PBL cell suspension, JR-CSF HIV-1 was clarified at low-speed centrifugation (2,000-3,000 rpm) or filtration and stored in aliquots at -70° C. To maintain consistent titers, HIV-1 aliquots were not subjected to repeated freezing and thawing and any remainder was discarded. Virus aliquots were thawed at room temperature or under cold running water for more rapid thawing and maintained in ice after thawing. Just prior to infection of PBL cells, the supernatant or dilution were warmed to room temperature.
Human PBL cells taken from a suitable donor were centrifuged down at 1000 rpm for 5-10 minutes at room temperature. While cells were spinning, the virus inoculum was prepared in medium by adding 10 μg/ml Polybrene®. The centrifuged cells were resuspended in virus inoculum, using 1 ml of virus inoculum per 10^7 cells. A more efficient HIV-1 infection is obtained with smaller amounts of inoculum. The cells were incubated at 37° C. in the presence of virus inoculum for 2 hours, shaking the suspension every half hour. After 2 hours, the suspension was spun down, the virus inoculum removed and the cells were washed with 10 ml of fresh media. […]

| SMILES | pIC50 [2] | CC50 [3] | other results |
| --- | --- | --- | --- |
| CC(=O)CCCCCCn1c(=O)c2c(ncn2C)n(C)c1=O [A, 1-(7-oxooctyl)-3,7-dimethylxanthine] |  |  | concentration at which comparative compounds' activity is apparent (human stromal cells): millimolar concentrations |
| CC(CCCCn1c(=O)c2c(ncn2C)n(C)c1=O)N(C)C (stereo not drawn) [B, 1-(5-dimethylaminohexyl)-3,7-dimethylxanthine] |  |  | concentration at which comparative compounds' activity is apparent (human stromal cells): millimolar concentrations |
| CCCCCCCCCCCCN(C)CCCCCCCCCCCn1c(=O)c2c(ncn2C)n(C)c1=O [compound 3576] | > 5.00 | < 15 µM | pIC50 (thymocytes): 6.59; effect on normal cells compared to known chemotherapeutic compounds in vitro [1]: less deleterious to normal cells |
| CCCCCCCCCCNCCCCCCCCCCCn1c(=O)c2c(ncn2C)n(C)c1=O [compound 3581] | > 5.30 | < 10 µM | effect on normal cells compared to known chemotherapeutic compounds in vitro [1]: less deleterious to normal cells |
| CCCCCCCCCCCCCCNCCCCCCCCCCCn1c(=O)c2c(ncn2C)n(C)c1=O [compound 3582] | > 5.30 | < 5 µM |  |
| CCCCCCCCCCCCCCCCNCCCCCCCCCCCn1c(=O)c2c(ncn2C)n(C)c1=O [compound 3584] | > 5.00 | < 15 µM | effect on normal cells compared to known chemotherapeutic compounds in vitro [1]: less deleterious to normal cells |
| CCCCCCCCCCCCCNCCCCCCCCCCCn1c(=O)c2c(ncn2C)n(C)c1=O [compound 4507] | > 5.40 | < 7 µM |  |
| CCCCCCCCCCCNCCCCCCn1c(=O)c2c(ncn2C)n(C)c1=O [compound no. 3506] |  |  | PDGF-induced proliferation in human stromal cells (human stromal cells; 50 ng/ml PDGF, compound added one hour prior, FIG. 1): inhibition of PDGF-induced proliferation; pIC50 (thymocytes): 5.64 |
| CCCCCCCCNCCCCCCCCCCCn1c(=O)c2c(ncn2C)n(C)c1=O [compound no. 3556, 1-(11-octylaminoundecyl)-3,7-dimethylxanthine] | ~5.60 | ~12.5 µM | minimal effective concentration (Balb/3T3 cells [4]): < 30 µM; cytotoxicity to Balb/3T3 cells (Balb/3T3 cells [5]): not cytotoxic to any cells; concentration at which cytotoxicity becomes significant (293-EBNA cells): > 10 µM; decrease of HIV-1 infection of PBL (JR-CSF strain of HIV-1; 1 μM): decreased infection by about two to three fold; HIV-1 infection of PBL (JR-CSF strain of HIV-1; 10 and 20 μM): virtually eliminated viral infection |
| CCCCCCCCCCCCNCCCCCCCCCCCn1c(=O)c2c(ncn2C)n(C)c1=O [compound no. 3563] | > 5.40 | < 7 µM | toxicity for normal mouse marrow cells [1]: most cytotoxic to proliferative potential of the mouse marrow cells; effect on normal cells compared to known chemotherapeutic compounds in vitro [1]: less deleterious to normal cells |
| CCCCCCNCCCCCCCCCCCn1c(=O)c2c(ncn2C)n(C)c1=O [compound no. 3580] | > 5.00 | < 30 µM | cytotoxicity to 293-EBNA cells (in words) (293-EBNA cells): minimal cytotoxicity |
| CCCCCCN(CCCCCC)CCCCCCCCCCCn1c(=O)c2c(ncn2C)n(C)c1=O [compound no. 3590] | > 4.70 |  | cytotoxicity to 293-EBNA cells (in words) (293-EBNA cells): little cytotoxicity even at >32 μM |
| COc1cc(CNCCCCCCCCCCCn2c(=O)c3c(ncn3C)n(C)c2=O)cc(OC)c1OC [compound no. 3593] | > 4.60 |  | cytotoxicity to 293-EBNA cells (in words) (293-EBNA cells): little cytotoxicity, even at >32 μM |
| CCCCCCN(C)CCCCCCCCCCCn1c(=O)c2c(ncn2C)n(C)c1=O [compound no. 4500] | > 5.00 |  | minimal effective concentration (Balb/3T3 cells [4]): < 30 µM; cytotoxicity to Balb/3T3 cells (Balb/3T3 cells [5]): not cytotoxic to any cells; toxicity for normal mouse marrow cells [1]: virtually no toxicity at elevated concentrations |
| CCCCCCCCCCCCCCCNCCCCCCCCCCCn1c(=O)c2c(ncn2C)n(C)c1=O [compound no. 4508] | > 5.00 | < 10 µM |  |
